In US20250223268A1, “4-Methylsulfonylbenzamide Compound, Preparation Method, Herbicidal Composition And Use” (Jiangsu Flag Chemical Industry Co., Ltd., priority 2022, published 2025):

Columns and labels:
Type in all cases: in vivo
Echinochloa crusgalli [1] = assay: Greenhouse herbicidal activity and crop safety comparison (Test Example 2); conditions: Rate 150 g/ha
In short: (§1)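 Fresh weight inhibition, banded into grades A to E (E <20%), was rated 14-21 days after foliar spraying of 3-6 leaf plants, or 14-30 days after a soil spray applied 24 h post-sowing.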

Leptochloa chinensis [2] = assay: as above; conditions: Rate 150 g/ha
In short: as §1

[3] = tested on: Oryza sativa subsp. indica; assay: as above; conditions: Rate 150 g/ha
In short: as §1

[4] = tested on: Oryza sativa subsp. japonica; assay: as above; conditions: Rate 150 g/ha
In short: as §1

Cyperus iria = assay: Greenhouse herbicidal activity assay, post-emergence; conditions: Post-emergence test, rate 150 g a.i./hm^2, grade by fresh weight inhibition rate
In short: (§2)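 Letter grades (A: ≥80% to 100%; C: ≥40% to <60%; E: <20%) express fresh weight inhibition recorded 14-21 days post-spray. Weeds were treated on the leaves once they reached 3-6 leaves in chamber-grown pots, allowed to dry naturally, then kept in the chamber.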

Digitaria sanguinalis = assay: as above; conditions: Post-emergence test, rate 150 g a.i./hm^2, grade by fresh weight inhibition rate
In short: as §2

Echinochloa crusgalli [5] = assay: as above; conditions: Post-emergence test, rate 150 g a.i./hm^2, grade by fresh weight inhibition rate
In short: as §2

Eclipta prostrata = assay: as above; conditions: Post-emergence test, rate 150 g a.i./hm^2, grade by fresh weight inhibition rate
In short: as §2

Leptochloa chinensis [6] = assay: as above; conditions: Post-emergence test, rate 150 g a.i./hm^2, grade by fresh weight inhibition rate
In short: as §2

CS(=O)(=O)c1ccc(C(=O)Nc2nnco2)c(Cl)c1S(=O)(=O)C1CC1 [Compound 3-307]
Echinochloa crusgalli, control efficacy grading (fresh weight inhibition rate) (Echinochloa crusgalli [1]): A (Fresh weight inhibition rate≥80% to 100%) | Leptochloa chinensis, control efficacy grading (fresh weight inhibition rate) (Leptochloa chinensis [2]): A (Fresh weight inhibition rate≥80% to 100%) | Oryza sativa subsp. indica, grading of fresh weight inhibition rate (crop safety) [3]: E (Fresh weight inhibition rate<20%) | Oryza sativa subsp. japonica, grading of fresh weight inhibition rate (crop safety) [4]: E (Fresh weight inhibition rate<20%) | Control efficacy grade, Cyperus iria (Cyperus iria): A (Fresh weight inhibition rate≥80% to 100%) | Control efficacy grade, Digitaria sanguinalis (Digitaria sanguinalis): A (Fresh weight inhibition rate≥80% to 100%) | Control efficacy grade, Echinochloa crusgalli (Echinochloa crusgalli [5]): A (Fresh weight inhibition rate≥80% to 100%) | Control efficacy grade, Eclipta prostrata (Eclipta prostrata): A (Fresh weight inhibition rate≥80% to 100%) | Control efficacy grade, Leptochloa chinensis (Leptochloa chinensis [6]): A (Fresh weight inhibition rate≥80% to 100%)

C=CCS(=O)(=O)c1c(S(C)(=O)=O)ccc(C(=O)Nc2nnc(C(C)C)o2)c1Cl [Compound 3-574]
Echinochloa crusgalli, control efficacy grading (fresh weight inhibition rate) (Echinochloa crusgalli [1]): A (Fresh weight inhibition rate≥80% to 100%) | Leptochloa chinensis, control efficacy grading (fresh weight inhibition rate) (Leptochloa chinensis [2]): A (Fresh weight inhibition rate≥80% to 100%) | Oryza sativa subsp. indica, grading of fresh weight inhibition rate (crop safety) [3]: E (Fresh weight inhibition rate<20%) | Oryza sativa subsp. japonica, grading of fresh weight inhibition rate (crop safety) [4]: E (Fresh weight inhibition rate<20%) | Control efficacy grade, Cyperus iria (Cyperus iria): A (Fresh weight inhibition rate≥80% to 100%) | Control efficacy grade, Digitaria sanguinalis (Digitaria sanguinalis): B (Fresh weight inhibition rate≥260% to <80%) | Control efficacy grade, Echinochloa crusgalli (Echinochloa crusgalli [5]): A (Fresh weight inhibition rate≥80% to 100%) | Control efficacy grade, Eclipta prostrata (Eclipta prostrata): A (Fresh weight inhibition rate≥80% to 100%) | Control efficacy grade, Leptochloa chinensis (Leptochloa chinensis [6]): A (Fresh weight inhibition rate≥80% to 100%)

CCc1nnc(NC(=O)c2ccc(S(C)(=O)=O)c(S(=O)(=O)C3CCCC3)c2Cl)o1 [Compound 3-433]
Echinochloa crusgalli, control efficacy grading (fresh weight inhibition rate) (Echinochloa crusgalli [1]): A (Fresh weight inhibition rate≥80% to 100%) | Leptochloa chinensis, control efficacy grading (fresh weight inhibition rate) (Leptochloa chinensis [2]): A (Fresh weight inhibition rate≥80% to 100%) | Oryza sativa subsp. indica, grading of fresh weight inhibition rate (crop safety) [3]: E (Fresh weight inhibition rate<20%) | Oryza sativa subsp. japonica, grading of fresh weight inhibition rate (crop safety) [4]: E (Fresh weight inhibition rate<20%) | Control efficacy grade, Cyperus iria (Cyperus iria): A (Fresh weight inhibition rate≥80% to 100%) | Control efficacy grade, Digitaria sanguinalis (Digitaria sanguinalis): A (Fresh weight inhibition rate≥80% to 100%) | Control efficacy grade, Echinochloa crusgalli (Echinochloa crusgalli [5]): A (Fresh weight inhibition rate≥80% to 100%) | Control efficacy grade, Eclipta prostrata (Eclipta prostrata): A (Fresh weight inhibition rate≥80% to 100%) | Control efficacy grade, Leptochloa chinensis (Leptochloa chinensis [6]): A (Fresh weight inhibition rate≥80% to 100%)

CCC(C)S(=O)(=O)c1c(S(C)(=O)=O)ccc(C(=O)Nc2nnc(C3CC3)o2)c1Cl (racemic) [Compound 3-638]
Echinochloa crusgalli, control efficacy grading (fresh weight inhibition rate) (Echinochloa crusgalli [1]): A (Fresh weight inhibition rate≥80% to 100%) | Leptochloa chinensis, control efficacy grading (fresh weight inhibition rate) (Leptochloa chinensis [2]): A (Fresh weight inhibition rate≥80% to 100%) | Oryza sativa subsp. indica, grading of fresh weight inhibition rate (crop safety) [3]: E (Fresh weight inhibition rate<20%) | Oryza sativa subsp. japonica, grading of fresh weight inhibition rate (crop safety) [4]: E (Fresh weight inhibition rate<20%) | Control efficacy grade, Cyperus iria (Cyperus iria): A (Fresh weight inhibition rate≥80% to 100%) | Control efficacy grade, Digitaria sanguinalis (Digitaria sanguinalis): B (Fresh weight inhibition rate≥260% to <80%) | Control efficacy grade, Echinochloa crusgalli (Echinochloa crusgalli [5]): A (Fresh weight inhibition rate≥80% to 100%) | Control efficacy grade, Eclipta prostrata (Eclipta prostrata): A (Fresh weight inhibition rate≥80% to 100%) | Control efficacy grade, Leptochloa chinensis (Leptochloa chinensis [6]): A (Fresh weight inhibition rate≥80% to 100%)

CS(=O)(=O)c1ccc(C(=O)Nc2nnco2)c(Cl)c1S(=O)(=O)CC(F)(F)F [Compound 3-327]
Echinochloa crusgalli, control efficacy grading (fresh weight inhibition rate) (Echinochloa crusgalli [1]): A (Fresh weight inhibition rate≥80% to 100%) | Leptochloa chinensis, control efficacy grading (fresh weight inhibition rate) (Leptochloa chinensis [2]): A (Fresh weight inhibition rate≥80% to 100%) | Oryza sativa subsp. indica, grading of fresh weight inhibition rate (crop safety) [3]: E (Fresh weight inhibition rate<20%) | Oryza sativa subsp. japonica, grading of fresh weight inhibition rate (crop safety) [4]: E (Fresh weight inhibition rate<20%) | Control efficacy grade, Cyperus iria (Cyperus iria): A (Fresh weight inhibition rate≥80% to 100%) | Control efficacy grade, Digitaria sanguinalis (Digitaria sanguinalis): B (Fresh weight inhibition rate≥260% to <80%) | Control efficacy grade, Echinochloa crusgalli (Echinochloa crusgalli [5]): A (Fresh weight inhibition rate≥80% to 100%) | Control efficacy grade, Eclipta prostrata (Eclipta prostrata): A (Fresh weight inhibition rate≥80% to 100%) | Control efficacy grade, Leptochloa chinensis (Leptochloa chinensis [6]): A (Fresh weight inhibition rate≥80% to 100%)

Cc1nnc(NC(=O)c2ccc(S(C)(=O)=O)c(S(=O)(=O)C(C)C)c2Cl)o1 [Compound 3-10, 2-chloro-3-(isopropylsulfonyl)-N-(5-methyl-1,3,4-oxadiazol-2-yl)-4-(methylsulfonyl)benzamide]
inhibition at 150 g/ha (Echinochloa crusgalli [1]; Echinochloa crus-galli, read-out: Echinochloa crusgalli, control efficacy grading (fresh weight inhibition rate)): 80 to 100% | inhibition at 150 g/ha (Leptochloa chinensis [2]; Dinebra chinensis, read-out: Leptochloa chinensis, control efficacy grading (fresh weight inhibition rate)): 80 to 100% | Oryza sativa subsp. indica, grading of fresh weight inhibition rate (crop safety) [3]: E (Fresh weight inhibition rate<20%) | Oryza sativa subsp. japonica, grading of fresh weight inhibition rate (crop safety) [4]: E (Fresh weight inhibition rate<20%) | pest or weed control at 150 g/ha (Cyperus iria; Cyperus iria, read-out: Control efficacy grade, Cyperus iria): 80 to 100% | pest or weed control at 150 g/ha (Digitaria sanguinalis; Digitaria sanguinalis, read-out: Control efficacy grade, Digitaria sanguinalis): 80 to 100% | pest or weed control at 150 g/ha (Echinochloa crusgalli [5]; Echinochloa crus-galli, read-out: Control efficacy grade, Echinochloa crusgalli): 80 to 100% | pest or weed control at 150 g/ha (Eclipta prostrata; Eclipta prostrata, read-out: Control efficacy grade, Eclipta prostrata): 80 to 100% | pest or weed control at 150 g/ha (Leptochloa chinensis [6]; Dinebra chinensis, read-out: Control efficacy grade, Leptochloa chinensis): 80 to 100%

CS(=O)(=O)c1ccc(C(=O)Nc2nnco2)c(Cl)c1S(=O)(=O)C1CCCC1 [Compound 3-317]
Echinochloa crusgalli, control efficacy grading (fresh weight inhibition rate) (Echinochloa crusgalli [1]): A (Fresh weight inhibition rate≥80% to 100%) | Leptochloa chinensis, control efficacy grading (fresh weight inhibition rate) (Leptochloa chinensis [2]): A (Fresh weight inhibition rate≥80% to 100%) | Oryza sativa subsp. indica, grading of fresh weight inhibition rate (crop safety) [3]: E (Fresh weight inhibition rate<20%) | Oryza sativa subsp. japonica, grading of fresh weight inhibition rate (crop safety) [4]: E (Fresh weight inhibition rate<20%) | Control efficacy grade, Cyperus iria (Cyperus iria): A (Fresh weight inhibition rate≥80% to 100%) | Control efficacy grade, Digitaria sanguinalis (Digitaria sanguinalis): A (Fresh weight inhibition rate≥80% to 100%) | Control efficacy grade, Echinochloa crusgalli (Echinochloa crusgalli [5]): A (Fresh weight inhibition rate≥80% to 100%) | Control efficacy grade, Eclipta prostrata (Eclipta prostrata): A (Fresh weight inhibition rate≥80% to 100%) | Control efficacy grade, Leptochloa chinensis (Leptochloa chinensis [6]): A (Fresh weight inhibition rate≥80% to 100%)

Cc1nnc(NC(=O)c2ccc(S(C)(=O)=O)c(S(=O)(=O)C3CCCC3)c2Cl)o1 [Compound 3-91]
Echinochloa crusgalli, control efficacy grading (fresh weight inhibition rate) (Echinochloa crusgalli [1]): A (Fresh weight inhibition rate≥80% to 100%) | Leptochloa chinensis, control efficacy grading (fresh weight inhibition rate) (Leptochloa chinensis [2]): A (Fresh weight inhibition rate≥80% to 100%) | Oryza sativa subsp. indica, grading of fresh weight inhibition rate (crop safety) [3]: E (Fresh weight inhibition rate<20%) | Oryza sativa subsp. japonica, grading of fresh weight inhibition rate (crop safety) [4]: E (Fresh weight inhibition rate<20%) | Control efficacy grade, Cyperus iria (Cyperus iria): A (Fresh weight inhibition rate≥80% to 100%) | Control efficacy grade, Digitaria sanguinalis (Digitaria sanguinalis): A (Fresh weight inhibition rate≥80% to 100%) | Control efficacy grade, Echinochloa crusgalli (Echinochloa crusgalli [5]): A (Fresh weight inhibition rate≥80% to 100%) | Control efficacy grade, Eclipta prostrata (Eclipta prostrata): A (Fresh weight inhibition rate≥80% to 100%) | Control efficacy grade, Leptochloa chinensis (Leptochloa chinensis [6]): A (Fresh weight inhibition rate≥80% to 100%)

CCC(C)S(=O)(=O)c1c(S(C)(=O)=O)ccc(C(=O)Nc2nnc(C(C)C)o2)c1Cl (racemic) [Compound 3-522]
Echinochloa crusgalli, control efficacy grading (fresh weight inhibition rate) (Echinochloa crusgalli [1]): A (Fresh weight inhibition rate≥80% to 100%) | Leptochloa chinensis, control efficacy grading (fresh weight inhibition rate) (Leptochloa chinensis [2]): A (Fresh weight inhibition rate≥80% to 100%) | Oryza sativa subsp. indica, grading of fresh weight inhibition rate (crop safety) [3]: E (Fresh weight inhibition rate<20%) | Oryza sativa subsp. japonica, grading of fresh weight inhibition rate (crop safety) [4]: E (Fresh weight inhibition rate<20%) | Control efficacy grade, Cyperus iria (Cyperus iria): A (Fresh weight inhibition rate≥80% to 100%) | Control efficacy grade, Digitaria sanguinalis (Digitaria sanguinalis): C (Fresh weight inhibition rate≥40% to <60%) | Control efficacy grade, Echinochloa crusgalli (Echinochloa crusgalli [5]): A (Fresh weight inhibition rate≥80% to 100%) | Control efficacy grade, Eclipta prostrata (Eclipta prostrata): A (Fresh weight inhibition rate≥80% to 100%) | Control efficacy grade, Leptochloa chinensis (Leptochloa chinensis [6]): A (Fresh weight inhibition rate≥80% to 100%)
